Test results as given in patent publication US20240360177A1, “PEPTIDES WITH ANTIMICROBIAL ACTIVITIES” (priority 2021, published 2024).
Values after ≈ are worked out from the molar mass of the structure shown. Read-outs that look alike come from different tables or passages of the source. Starred links: 1 amine or outer side, 2 acyl side, 3 side chain; linkers in the order of their positions; H or OH if unused. Non-standard residues stand in square brackets, D forms with d. Residues, ends and D or L forms follow the SMILES beside them. NH(CH2)9CO = O=C(CCCCCCCCCN[*:1])[*:2]; Aoc = NCCCCCCCC(=O)O; βAla = NCCC(=O)O

Assays:
[1] = Acute toxicity in CD-1 mice; conditions: both sexes, mouse, in vivo
Experimental: Acute toxicity and subacute toxicity of ACPs were tested in CD-1 mice. In the acute toxicity study, groups of CD-1 male or female mice were administered single intravenous or intraperitoneal escalating doses (n=2-3 per dose) of the peptides dissolved in normal saline for injection or in phosphate buffered saline. The intravenous dose was administered via tail vein with a slow push over 15-20 seconds. Doses were escalated based on tolerability.

in vitro [2] = conditions: human, human serum, full strength
C. parapsilosis = conditions: 24 h
Scedosporium spp. = conditions: 72 h
C. dubliniensis = conditions: 24 h
[3] = Subacute toxicity in CD-1 mice; assay type: in vivo; conditions: daily IP for 7 days
Experimental: In the subacute toxicity study, groups of CD-1 male or female mice were administered seven consecutive daily intraperitoneal doses (n=3 per dose) of the peptides (SEQ ID NO: 7, SEQ ID NO: 29, SEQ ID NO: 53) dissolved in normal saline for injection. Each peptide was evaluated at 2 to 3 dose levels ranging from 2.5 to 7.5 mg/kg/day. Mice were weighed at least once daily and observed at least twice daily for any abnormal findings and determination of overall health. At 24 hrs after the last dose, mice were humanely euthanized, with blood collected through cardiac puncture into K2EDTA microtainers to assess hematological parameters. All three peptides were tolerated at the highest dose evaluated (7.5 mg/kg/day) for 7 days.

C. krusei = conditions: 24 h
Endoproteinase Arg-C = molecular target: T1, Endoproteinase Arg-C (Hathewaya histolytica, UniProt P09870); assay: Endoproteinase Arg-C digestion stability; assay type: in vitro ADME; conditions: 37° C.
T1 construct: purchased Sigma Aldrich 11370529001
T1 sequence (P09870 51-181): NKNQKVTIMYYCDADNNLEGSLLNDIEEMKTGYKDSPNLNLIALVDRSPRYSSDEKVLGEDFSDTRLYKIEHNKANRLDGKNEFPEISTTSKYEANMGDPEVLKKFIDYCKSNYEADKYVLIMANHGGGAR
T1 sequence (P09870 191-526): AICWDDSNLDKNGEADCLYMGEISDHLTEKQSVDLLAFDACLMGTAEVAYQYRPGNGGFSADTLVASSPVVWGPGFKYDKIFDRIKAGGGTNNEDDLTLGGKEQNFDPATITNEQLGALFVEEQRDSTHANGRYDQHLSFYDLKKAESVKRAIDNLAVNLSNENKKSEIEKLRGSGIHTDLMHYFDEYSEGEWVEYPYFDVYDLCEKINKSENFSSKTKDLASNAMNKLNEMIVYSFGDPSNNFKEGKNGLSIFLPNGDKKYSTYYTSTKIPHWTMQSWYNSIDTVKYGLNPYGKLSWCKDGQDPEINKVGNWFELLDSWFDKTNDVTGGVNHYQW

Rhizopus arrhizus = conditions: 24 h
C. neoformans = conditions: 72 h
C. glabrata = conditions: 24 h
C. gattii = conditions: 72 h
[4] = Plasma pharmacokinetics after single IV or IP dose in mice; assay type: in vivo, CD-1 mice
Experimental: The in vitro enzymatic and serum stability of the peptides is manifested by the in vivo plasma pharmacokinetic (PK) profile. A single 5 mg/kg intravenous injection (via tail vein) and a single 7.5 mg/kg intraperitoneal dose of SEQ ID NO: 7 were administered to 2 groups of CD-1 mice (n=3 per group). […] Serial blood samples were collected from the saphenous vein into EDTA-K2 as anti-coagulant at time points up to 4 hrs or 8 hrs after the intravenous or intraperitoneal doses. Plasma was separated and analyzed by an LC-MS/MS method as follows. Due to the small blood volume collected from each mouse, the plasma was pooled from 3 mice before analysis. A 50 μL of plasma was protein precipitated with a 100 μL solution of 300 ng/mL TAT peptide ([…]; SEQ ID NO: 99) as the internal standard in 5% trichloroacetic acid. After centrifugation, an aliquot of the supernatant was injected onto an HPLC column (Waters ACQUITY UPLC HSS T3, 2.1*50 mm, 1.8 μm) eluted with a gradient of mobile phase containing 0.1% perfluoropentanoic acid (PFPA) in water and 0.1% PFPA in acetonitrile. The peptide and the internal standard were detected using a Triple Quad 6500+ mass spectrometer operated with electro-spray ionization in the positive-ion SRM mode. The calibration curve range was from 10 to 4000 ng/mL. The mean plasma concentration of SEQ ID NO: 7 after the single intravenous and intraperitoneal doses are depicted in FIG. 2.
C0 or Cmax is concentration at time of injection for IV dose, or maximal concentration after IP dose; tmax is the time when C0 or Cmax was observed; t1/2 is plasma half-life; AUC is area under the plasma concentration vs. time curve; F is absolute bioavailability.

Fusarium spp. = conditions: 48 h
Paecilomyces variotii = conditions: 48 h
C. albicans = conditions: 24 h
in vitro [5] = conditions: human, EC50 cytotoxicity in HepG2, intracellular ATP assay
Coccidioides species = conditions: N = 3 strains; 48-72 hrs; >50% inhibition
C. tropicalis = conditions: 24 h
C. auris = conditions: 24 h
[6] = test system: Trichophyton rubrum ATCC MYA-4438
[7] = test system: Staphylococcus aureus ATCC 29213; assay type: cell-based
[8] = test system: Epidermophyton floccosum ATCC 52066
[9] = test system: Microsporum gypseum ATCC 14683
[10] = test system: Pseudomonas aeruginosa ATCC 27853; assay type: cell-based
[11] = test system: Escherichia coli ATCC 25922; assay type: cell-based
[12] = test system: Shigella sonnei MMX 10772; assay: Antibacterial broth microdilution MIC, Shigella sonnei; assay type: cell-based; conditions: CAMHB
[13] = test system: Klebsiella pneumoniae ATCC 13883; assay type: cell-based
[14] = test system: Mycobacterium smegmatis ATCC 700084; assay type: cell-based; conditions: ATCC 700084, 48 h
[15] = test system: Salmonella senftenberg CDC 127; assay type: cell-based
[16] = test system: Mycobacterium fortuitum ATCC 110; assay: Antibacterial broth microdilution MIC, Mycobacterium fortuitum; assay type: cell-based; conditions: 48 hrs
[17] = single IP dose, read-out: Tolerated single intraperitoneal dose
[18] = single IV dose via tail vein, read-out: Tolerated single intravenous dose
[19] = CD-1, mouse, IP 7.5 mg/kg, plasma
[20] = CD-1, mouse, IV 5 mg/kg, plasma

| Compound | MTD [1, 17] [mg/kg] | MTD [1, 18] [mg/kg] | MIC C. parapsilosis (C. parapsilosis) [µg/mL] | MIC Range Scedosporium spp. (Scedosporium spp.) [µg/mL] | MIC C. dubliniensis (C. dubliniensis) [µg/mL] | MIC Range Lomentospora prolificans (Lomentospora prolificans) [µg/mL] | MIC C. krusei (C. krusei) [µg/mL] | MIC Range Rhizopus arrhizus (Rhizopus arrhizus) [µg/mL] | MIC C. neoformans (C. neoformans) [µg/mL] | MIC C. glabrata (C. glabrata) [µg/mL] | MIC C. gattii (C. gattii) [µg/mL] | MIC Range Fusarium spp. (Fusarium spp.) [µg/mL] | MIC Range Paecilomyces variotii (Paecilomyces variotii) [µg/mL] | MIC C. albicans (C. albicans) [µg/mL] | EC50 (in vitro [5]) [µg/mL] | MIC Range Coccidioides species (Coccidioides species) [µg/mL] | MIC C. tropicalis (C. tropicalis) [µg/mL] | MIC C. auris (C. auris) [µg/mL] | other results |
| --- | --- | --- | --- | --- | --- | --- | --- | --- | --- | --- | --- | --- | --- | --- | --- | --- | --- | --- | --- |
| N=C(N)NCCC[C@@H](N)C(=O)N[C@@H](CCCNC(=N)N)C(=O)N[C@H](CCCNC(=N)N)C(=O)NCCC(=O)N[C@H](CCCNC(=N)N)C(=O)N[C@@H](CCCNC(=N)N)C(=O)N[C@H](CCCNC(=N)N)C(=O)NCCC(=O)N[C@H](CCCNC(=N)N)C(=O)N[C@@H](CCCNC(=N)N)C(=O)N[C@H](CCCNC(=N)N)C(=O)N[C@@H](CCCNC(=N)N)C(=O)NCCC(=O)N[C@H](CCCNC(=N)N)C(=O)N[C@@H](CCCNC(=N)N)C(=O)N[C@H](CCCNC(=N)N)C(=O)N[C@@H](CCCNC(=N)N)C(N)=O [SEQ ID NO: 7, rRr-(Apr)-rRr-(Apr)-rRrR-(Apr)-rRrR-NH2] (H-[dR]R[dR][βAla][dR]R[dR][βAla][dR]R[dR]R[βAla][dR]R[dR]R-NH2) | 10 to 15 | 5 to 7.5 | 0.12 (≈ 0.0497 µM) | ≤0.12 | 0.25 (≈ 0.103 µM) | ≤0.12 | 0.5 (≈ 0.207 µM) | 1 to 8 | 0.25 (≈ 0.103 µM) | 0.5 (≈ 0.207 µM) | 0.25 (≈ 0.103 µM) | 0.12 to 0.5 | 0.25 (≈ 0.103 µM) | 0.5 (≈ 0.207 µM) | > 300 | 0.25 to 0.5 | 0.25 (≈ 0.103 µM) | 1 (≈ 0.414 µM) | remaining at 2 h, 5 μM (in vitro [2]): ~100%; Tolerated dose (highest dose evaluated) [3]: 7.5 mg/kg/day; Clinical or hematological adverse effects ([3]; up to 7.5 mg/kg/day): No significant clinical or hematological adverse effects were observed; half-life at 427 μg/mL (Endoproteinase Arg-C; Endoproteinase Arg-C (isolated enzyme), read-out: Degradation half-life with Endoproteinase Arg-C (converted)): ~6 h; remaining at 6 h, 427 μg/mL (Endoproteinase Arg-C; Endoproteinase Arg-C, peptide 427 μg/mL, enzyme 3 μg/mL, 6 hrs, read-out: Percent peptide remaining after incubation with Endoproteinase Arg-C): 50.5%; AUC [4, 19]: 4740 ng·h/mL; Cmax [4, 19]: 1750 ng/mL; Tmax [4, 19]: 1 h; half-life [4, 19]: 1.69 h; AUC [4, 20]: 4420 ng·h/mL; C0 [4, 20]: 4480 ng/mL; Tmax [4, 20]: 0 h; half-life [4, 20]: 1.43 h; bioavailability ([4]; CD-1, mouse, plasma, IP 7.5 mg/kg, read-out: F (absolute bioavailability)): 74.8%; Tolerability of the PK doses ([4]; single 5 mg/kg IV and single 7.5 mg/kg IP): well tolerated; MIC50 Candida species (Candida spp.): 0.5 µg/mL (≈ 0.207 µM); MIC90 Candida species (Candida spp.): 1 µg/mL (≈ 0.414 µM) |
| N=C(N)NCCC[C@@H](N)C(=O)N[C@@H](CCCNC(=N)N)C(=O)N[C@H](CCCNC(=N)N)C(=O)NCCCCCCCCCC(=O)N[C@H](CCCNC(=N)N)C(=O)N[C@@H](CCCNC(=N)N)C(=O)N[C@H](CCCNC(=N)N)C(=O)NCCCCCCCC(=O)N[C@H](CCCNC(=N)N)C(=O)N[C@@H](CCCNC(=N)N)C(=O)N[C@H](CCCNC(=N)N)C(=O)N[C@@H](CCCNC(=N)N)C(=O)NCCCCCCCC(=O)N[C@H](CCCNC(=N)N)C(=O)N[C@@H](CCCNC(=N)N)C(=O)N[C@H](CCCNC(=N)N)C(=O)N[C@@H](CCCNC(=N)N)C(=O)O [SEQ ID NO: 32, rRr-(Ada)-rRr-(Aoa)-rRrR-(Aoa)-rRrR] (H-[dR]R[dR][NH(CH2)9CO][dR]R[dR][Aoc][dR]R[dR]R[Aoc][dR]R[dR]R-OH) | 10 to 15 | 5 to 7.5 | 0.25 (≈ 0.0941 µM) | ≤0.12 | 1 (≈ 0.376 µM) | 0.25 (≈ 0.0941 µM) | 0.5 (≈ 0.188 µM) | 0.5 to 8 | 0.25 (≈ 0.0941 µM) | 0.5 (≈ 0.188 µM) | 0.25 (≈ 0.0941 µM) | 0.25 to 1 | 0.25 (≈ 0.0941 µM) | 1 (≈ 0.376 µM) | > 300 | 0.25 to 0.5 | 0.5 (≈ 0.188 µM) | 4 (≈ 1.51 µM) | MIC Trichophyton rubrum [6]: 8 µg/mL (≈ 3.01 µM); MIC Staphylococcus aureus [7]: 8 µg/mL (≈ 3.01 µM); MIC Epidermophyton floccosum [8]: 4 µg/mL (≈ 1.51 µM); MIC Microsporum gypseum [9]: >64 µg/mL; MIC Pseudomonas aeruginosa [10]: 16 µg/mL (≈ 6.02 µM); MIC Escherichia coli [11]: 2 µg/mL (≈ 0.753 µM); MIC Shigella sonnei [12]: 4 µg/mL (≈ 1.51 µM); MIC Klebsiella pneumoniae [13]: 4 µg/mL (≈ 1.51 µM); MIC Mycobacterium smegmatis [14]: 0.5 µg/mL (≈ 0.188 µM); MIC Salmonella senftenberg [15]: 4 µg/mL (≈ 1.51 µM); MIC Mycobacterium fortuitum [16]: 2 µg/mL (≈ 0.753 µM) |
